# Assay results reported in ChEMBL document CHEMBL1201862, “PubChem BioAssay data set” (2004).
# Active and inactive are the calls of the source.
# Legend:
# [1] = tested on: BJ; experiment: BJ-TERT fibroblast viability loss – cell-based, RAS-independent, luminescence, dose response (AID 1933); type: functional; details: Homo sapiens
# [2] = molecular target: T1, Zinc finger protein mex-5 (Caenorhabditis elegans, UniProt Q9XUB2); experiment: potency of MEX-5 RNA-binding blockers – biochemical, C. elegans, fluorescence polarization, dose response (AID 1960)
# T1 sequence (Q9XUB2 whole entry): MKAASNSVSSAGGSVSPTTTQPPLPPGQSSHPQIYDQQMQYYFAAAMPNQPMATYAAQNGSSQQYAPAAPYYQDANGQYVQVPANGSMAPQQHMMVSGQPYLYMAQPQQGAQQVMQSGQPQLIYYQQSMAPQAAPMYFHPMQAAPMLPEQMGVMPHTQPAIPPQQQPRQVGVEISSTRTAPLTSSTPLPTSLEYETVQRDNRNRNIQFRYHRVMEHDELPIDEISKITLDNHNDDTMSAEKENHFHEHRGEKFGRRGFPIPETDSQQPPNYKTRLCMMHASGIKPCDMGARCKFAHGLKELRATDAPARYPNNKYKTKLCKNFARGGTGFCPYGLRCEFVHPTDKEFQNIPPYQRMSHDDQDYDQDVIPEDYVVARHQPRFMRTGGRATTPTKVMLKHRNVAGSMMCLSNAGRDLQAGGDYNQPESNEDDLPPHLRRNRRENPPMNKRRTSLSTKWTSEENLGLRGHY
# [3] = molecular target: T2, Heat shock factor protein 1 (Mus musculus, UniProt P38532); experiment: enhancement of HSF1-driven luciferase signal – cell-based, NIH3T3, luminescence, dose retest, confirmation (AID 435004); type: functional;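 note: stress induced by proteasome inhibitor MG132 added 30 min after compound; luciferase reporter driven by HSF1 response element in NIH3T3 cells; actives raise luminescence as potentiators of the MG132 stress response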
# T2 sequence (P38532 whole entry): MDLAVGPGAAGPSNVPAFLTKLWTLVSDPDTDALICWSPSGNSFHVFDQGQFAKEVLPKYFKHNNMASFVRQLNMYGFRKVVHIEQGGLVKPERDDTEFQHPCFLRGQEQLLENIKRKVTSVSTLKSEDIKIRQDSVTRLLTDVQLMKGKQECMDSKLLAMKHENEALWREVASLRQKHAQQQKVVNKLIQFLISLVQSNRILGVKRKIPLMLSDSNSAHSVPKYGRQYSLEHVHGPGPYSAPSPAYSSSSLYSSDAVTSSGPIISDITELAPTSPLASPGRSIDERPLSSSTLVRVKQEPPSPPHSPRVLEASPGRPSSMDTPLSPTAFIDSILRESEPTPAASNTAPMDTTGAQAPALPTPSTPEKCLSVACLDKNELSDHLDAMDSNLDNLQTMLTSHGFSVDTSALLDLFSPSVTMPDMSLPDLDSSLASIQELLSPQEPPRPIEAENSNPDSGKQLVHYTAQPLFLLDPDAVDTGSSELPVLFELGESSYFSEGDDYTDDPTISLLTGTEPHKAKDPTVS
# [4] = CellTiter-Glo luminescence survival assay, SW480 colon tumor line, concentration-response curve, half-maximal inhibitory concentration (AID 1117338); type: functional
# [5] = RKO cell viability reduction, dose response, CellTiter-Glo luminescence (AID 1117322); type: functional
# [6] = cytotoxicity toward HT-29 cells – cell-based, CellTiter-Glo luminescence, IC50, dose response (AID 1117330); type: functional
# [7] = molecular target: Serine/threonine-protein phosphatase (Homo sapiens, UniProt Q9BPW0); experiment: inhibition of protein phosphatase 5 activity – biochemical, fluorescence, dose response (AID 2395)
# Serine/threonine-protein phosphatase, sequence (Q9BPW0 whole entry): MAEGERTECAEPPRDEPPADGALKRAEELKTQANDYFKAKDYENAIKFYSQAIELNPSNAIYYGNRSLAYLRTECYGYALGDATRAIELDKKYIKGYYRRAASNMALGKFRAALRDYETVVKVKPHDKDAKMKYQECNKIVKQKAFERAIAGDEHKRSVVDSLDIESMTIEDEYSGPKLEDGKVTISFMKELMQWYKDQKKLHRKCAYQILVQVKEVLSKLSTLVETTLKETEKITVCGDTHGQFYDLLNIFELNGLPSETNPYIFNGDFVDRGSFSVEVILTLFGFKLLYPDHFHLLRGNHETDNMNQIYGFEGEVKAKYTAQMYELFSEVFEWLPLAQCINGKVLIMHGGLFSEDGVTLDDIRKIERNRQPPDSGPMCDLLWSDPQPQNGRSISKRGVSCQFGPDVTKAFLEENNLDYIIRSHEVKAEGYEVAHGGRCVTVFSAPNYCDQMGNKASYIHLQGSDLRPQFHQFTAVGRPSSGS
# [8] = molecular target: T3, Sentrin-specific protease 8 (Homo sapiens, UniProt Q96LD8); type: functional;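 note: luminescence read-out of SENP8 inhibition, dose-response confirmation following an ultra-high-throughput screen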
# T3 sequence (Q96LD8 whole entry): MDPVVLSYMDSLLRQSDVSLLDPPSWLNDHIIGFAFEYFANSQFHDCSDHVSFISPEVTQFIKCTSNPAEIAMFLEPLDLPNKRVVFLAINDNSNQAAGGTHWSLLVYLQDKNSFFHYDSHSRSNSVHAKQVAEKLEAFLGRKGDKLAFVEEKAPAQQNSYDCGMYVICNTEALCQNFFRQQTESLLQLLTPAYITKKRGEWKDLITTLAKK
# [9] = molecular target: T4, Caspase-6 (Homo sapiens, UniProt P55212); experiment: inhibition of CASP6 peptide cleavage – biochemical, VEID-R110 fluorescence, cherry-pick, dose response (AID 720632)
# T4 sequence (P55212 whole entry): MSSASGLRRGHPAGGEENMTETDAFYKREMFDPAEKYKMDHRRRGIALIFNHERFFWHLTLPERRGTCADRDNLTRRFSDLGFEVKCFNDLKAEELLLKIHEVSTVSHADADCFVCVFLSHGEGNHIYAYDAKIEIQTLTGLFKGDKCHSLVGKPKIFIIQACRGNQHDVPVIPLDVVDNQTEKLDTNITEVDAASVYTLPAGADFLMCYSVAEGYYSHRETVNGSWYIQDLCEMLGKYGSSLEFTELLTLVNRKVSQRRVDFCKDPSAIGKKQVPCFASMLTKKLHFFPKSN
# [10] = molecular target: T5, Sentrin-specific protease 6 (Homo sapiens, UniProt Q9GZR1); experiment: SAR Analysis of small molecule inhibitors of Sentrin-specific protease 6 (SENP6) using a Luminescent assay. [Related pubchem assays (depositor defined):AID2582, AID2599]; type: functional
# T5 sequence (Q9GZR1 whole entry): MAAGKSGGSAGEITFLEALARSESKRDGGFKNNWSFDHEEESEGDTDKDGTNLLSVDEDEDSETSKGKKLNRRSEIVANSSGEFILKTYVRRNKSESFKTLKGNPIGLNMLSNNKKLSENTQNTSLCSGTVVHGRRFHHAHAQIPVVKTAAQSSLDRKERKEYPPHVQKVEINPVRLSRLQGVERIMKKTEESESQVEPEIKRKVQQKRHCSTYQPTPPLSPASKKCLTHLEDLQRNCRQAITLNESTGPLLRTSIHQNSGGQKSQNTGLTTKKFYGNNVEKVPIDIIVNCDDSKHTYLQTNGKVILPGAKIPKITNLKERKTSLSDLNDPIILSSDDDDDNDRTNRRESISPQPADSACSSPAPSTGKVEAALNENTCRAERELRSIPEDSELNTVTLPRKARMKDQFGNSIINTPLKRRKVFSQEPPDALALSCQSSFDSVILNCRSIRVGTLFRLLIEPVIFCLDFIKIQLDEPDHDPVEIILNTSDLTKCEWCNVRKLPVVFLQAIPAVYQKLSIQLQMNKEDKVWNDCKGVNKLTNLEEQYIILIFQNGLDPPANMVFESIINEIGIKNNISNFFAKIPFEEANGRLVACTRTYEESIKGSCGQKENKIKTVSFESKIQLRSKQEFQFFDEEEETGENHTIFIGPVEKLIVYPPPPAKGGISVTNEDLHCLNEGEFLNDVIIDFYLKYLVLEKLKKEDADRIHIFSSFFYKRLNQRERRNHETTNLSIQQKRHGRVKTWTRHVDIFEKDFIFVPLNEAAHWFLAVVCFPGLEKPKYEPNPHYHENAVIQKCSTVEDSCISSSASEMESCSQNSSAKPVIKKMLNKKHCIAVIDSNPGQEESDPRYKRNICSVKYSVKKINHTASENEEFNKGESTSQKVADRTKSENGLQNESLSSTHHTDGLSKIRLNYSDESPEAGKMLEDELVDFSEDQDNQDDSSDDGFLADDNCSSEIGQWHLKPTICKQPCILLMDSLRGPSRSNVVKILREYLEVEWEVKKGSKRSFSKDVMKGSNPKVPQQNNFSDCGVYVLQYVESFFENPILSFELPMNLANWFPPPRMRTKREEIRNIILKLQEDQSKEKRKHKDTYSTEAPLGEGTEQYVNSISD
compound,measurement,setting,value
Cc1cc2nc3ccc(N(C)C)cc3[s+]c2cc1N [TOLONIUM CHLORIDE],EC50,[1],5.74 µM (active)
same,EC50,[2],35.6 µM (active)
same,EC50,[3],> 260 µM (inactive)
same,IC50,[4],1.4 µM (active)
same,IC50,[5],0.996 µM (active)
same,IC50,[6],5.06 µM (inactive)
CCCOc1cc2c(C#N)c(N3CCCC3)nc(N)c2c(N)n1,IC50,[7],9.93 µM (active)
same,IC50,[8],4.32 µM (active)
same,AC50,[9],16.9 µM (active)
Oc1ccc(/C=N/Nc2cc(N3CCCC3)nc(N3CCCC3)n2)cc1O,IC50,[10],10.5 µM (active)
